How the values were obtained:
RBL-FMB cells [1] = assay: Mitotic index by immunofluorescence; assay type: cell-based, rat; details: 20 hours
Protocol: Mitotic index was determined as previously described (Jordan et al., […] 56:816-825 (1996)). Briefly, 15,000 RBL-FMB cells plated in 8 well Labtek chambers (Nalge Nunc, Naperville, Ill.) and exposed to paclitaxel (Sigma Aldrich, St Louis) for 20 hours. The cells were fixed and permeablized with −20° C. cold methanol for 5 minutes at −20° C. They were blocked with 10% fetal calf serum in PBS for 10 minutes at RT. Alpha Tubulin was detected with a mouse monoclonal antibody clone GTU-88 (Sigma Aldrich, St. Louis Mo.). DNA was stained with Hoescht 33342 (Molecular Probes, Eugene, Oreg.). Only cells that were clearly in metaphase or anaphase were counted as a percentage of the total. The cells were imaged with a Zeiss epifluorescence microscope (Carl Zeiss, Germany).

Hela cells = details: cited from earlier work
RBL-FMB cells [2] = assay: TIRF based mitosis monitoring system, cells treated with TAXOL; assay type: cell-based, rat
Protocol: Rat Basophilic Leukemia Cells (RBL) were grown in Dulbecco's modified Eagles Media (DMEM) supplemented with 10% fetal calf serum, 2 mM glutamine, 100 U/ml penicillin, and 100 μg/ml streptomycin (all from Invitrogen, Carlsbad, Calif.). 10 million cells were electroporated (BioRad, Hercules, Calif.) in 600 μl of media with 40 μg of pFMB. These were allowed to recover for 48 hours and cells stably expressing the biosensor were selected for by the addition of 1 μg/ml Geneticin (Invitrogen, Carlsbad, Calif.). 10 days after the addition of Geneticin the cells were sorted based on EYFP fluorescence using a fluorescence activated cell sorter.
TIRF microscopy was carried out as described previously (Tengholm et al., Science's Stke. 2003 PL4 (2004)). Briefly, an argon-ion laser provided 514-nm laser light for excitation of the biosensor (Lexel Laser, Fremont, Calif.). Exposure of the RBL-FMBs to laser light was controlled by a Uniblitz shutter (Vincent, Rochester, N.Y.). Laser light homogenized with a rotating diffuser (Physical Optics, Torrance, Calif.) was refocused onto a dove prism at an angle yielding total internal reflection (>[…] for a glass-water interface at 37° C.). The excitation light could also be redirected to the back of the microscope and down to the sample via appropriate dichroic mirrors (Chroma Technology, Brattleboro, Vt.) for epi-illumination. Fluorescence was recorded at 530 nm with bandpass interference filters (30-50 nm half-bandwidth; Chroma Technology, Brattleboro, Vt.) mounted in a Sutter Lambda 10-2 filter wheel (Sutter Instrument, Novato, Calif.). Images were captured every 2 minutes with a cooled CCD camera (Micromax; Roper Scientific, Tuscon, Azir.). The shutters, filter wheel, and camera were controlled by Metamorph software (Universal Imaging, Downington, Pa.).
Both systems were heated with an ASI 400 Air Stream Incubator (Nevtek, Burnsville, Va.). The cells were perfused with fresh growth media saturated with 10% CO2 that was heated with an inline solution heater (Warner Instruments, Hamden, Conn.).
Metamorph software (Universal Imaging, Downington Pa.) was used for data image analysis. Fluorescence intensity was recorded over the entire stack of images by drawing regions of interest over each mitotic cell. Background correction was performed by subtracting the intensity of a background region of identical size next to each cell to account for the somewhat uneven background in the field of view over the time of the data collection. Background corrected intensity values were exported to a Microsoft Excel file and plotted. NEB was determined as the time just prior to the dramatic increase in fluorescence intensity. Anaphase onset is defined as the time point immediately preceding the second smaller increase in fluorescence. NER was determined as the point in time when fluorescence intensity starts to decrease back to baseline levels.

Structure (SMILES): CC(=O)O[C@H]1C(=O)[C@@]2(C)[C@H]([C@H](OC(=O)c3ccccc3)[C@]3(O)C[C@H](OC(=O)[C@H](O)[C@@H](NC(=O)c4ccccc4)c4ccccc4)C(C)=C1C3(C)C)[C@]1(OC(C)=O)CO[C@@H]1C[C@@H]2O [TAXOL™, paclitaxel]
- percentage of mitotic cells (mitotic index) (RBL-FMB cells [1]; higher taxol concentrations): increased
- effects on mitotic index (RBL-FMB cells [1]; low TAXOL concentrations): went unseen
- microtubule stabilization effect, concentration range (Hela cells): nM concentration range
- Mitotic arrest (RBL-FMB cells [2]; 10 nM): arrested for the duration of the experiment
- Anaphase-NER Ave. (RBL-FMB cells [2]; [Taxol] 0.01): 8.4 min
- Anaphase-NER Med. (RBL-FMB cells [2]; [Taxol] 0.01): 8 min
- NEB-NER Med. (RBL-FMB cells [2]; [Taxol] 0.01): 34 min
- NEB-anaphase Ave. (RBL-FMB cells [2]; [Taxol] 0.01): 28.4 min
- NEB-anaphase Med. (RBL-FMB cells [2]; [Taxol] 0.01): 26 min
- NEB-NER Ave. (RBL-FMB cells [2]; [Taxol] 0.01 (10 pM in text)): 35.6 min
- Anaphase-NER Ave. (RBL-FMB cells [2]; [Taxol] 0.1): 8.8 min
- Anaphase-NER Med. (RBL-FMB cells [2]; [Taxol] 0.1): 8 min
- NEB-NER Ave. (RBL-FMB cells [2]; [Taxol] 0.1): 38.1 min
- NEB-NER Med. (RBL-FMB cells [2]; [Taxol] 0.1): 36 min
- NEB-anaphase Ave. (RBL-FMB cells [2]; [Taxol] 0.1): 29.6 min
- NEB-anaphase Med. (RBL-FMB cells [2]; [Taxol] 0.1): 26 min
- Anaphase-NER Ave. (RBL-FMB cells [2]; [Taxol] 1): 10.3 min
- Anaphase-NER Med. (RBL-FMB cells [2]; [Taxol] 1): 10 min
- NEB-NER Ave. (RBL-FMB cells [2]; [Taxol] 1): 40.0 min
- NEB-NER Med. (RBL-FMB cells [2]; [Taxol] 1): 38 min
- NEB-anaphase Ave. (RBL-FMB cells [2]; [Taxol] 1): 29.8 min
- NEB-anaphase Med. (RBL-FMB cells [2]; [Taxol] 1): 28 min
- Anaphase-NER Ave. (RBL-FMB cells [2]; [Taxol] 3): 10.3 min
- Anaphase-NER Med. (RBL-FMB cells [2]; [Taxol] 3): 8 min
- NEB-NER Ave. (RBL-FMB cells [2]; [Taxol] 3): 62.8 min
- NEB-NER Med. (RBL-FMB cells [2]; [Taxol] 3): 50 min
- NEB-anaphase Ave. (RBL-FMB cells [2]; [Taxol] 3): 44.6 min
- NEB-anaphase Med. (RBL-FMB cells [2]; [Taxol] 3): 34 min
- Anaphase-NER Ave. (RBL-FMB cells [2]; [Taxol] 4): 9.8 min
- Anaphase-NER Med. (RBL-FMB cells [2]; [Taxol] 4): 10 min
- NEB-NER Ave. (RBL-FMB cells [2]; [Taxol] 4): 89.7 min
- NEB-NER Med. (RBL-FMB cells [2]; [Taxol] 4): 70 min
- NEB-anaphase Ave. (RBL-FMB cells [2]; [Taxol] 4): 77.7 min
- NEB-anaphase Med. (RBL-FMB cells [2]; [Taxol] 4): 60 min
- Anaphase-NER Ave. (RBL-FMB cells [2]; [Taxol] 5): 11.3 min
- Anaphase-NER Med. (RBL-FMB cells [2]; [Taxol] 5): 12 min
- NEB-NER Ave. (RBL-FMB cells [2]; [Taxol] 5): 112.2 min
- NEB-NER Med. (RBL-FMB cells [2]; [Taxol] 5): 102 min
- NEB-anaphase Ave. (RBL-FMB cells [2]; [Taxol] 5): 107.4 min
- NEB-anaphase Med. (RBL-FMB cells [2]; [Taxol] 5): 114 min
- Anaphase-NER Ave. (RBL-FMB cells [2]; [Taxol] 6): 13.3 min
- Anaphase-NER Med. (RBL-FMB cells [2]; [Taxol] 6): 11 min
- NEB-NER Ave. (RBL-FMB cells [2]; [Taxol] 6): 194.5 min
- NEB-NER Med. (RBL-FMB cells [2]; [Taxol] 6): 186 min
- NEB-anaphase Ave. (RBL-FMB cells [2]; [Taxol] 6): 183.3 min
- NEB-anaphase Med. (RBL-FMB cells [2]; [Taxol] 6): 175 min
- Anaphase-NER Ave. (RBL-FMB cells [2]; [Taxol] 7.5): 12.3 min
- Anaphase-NER Med. (RBL-FMB cells [2]; [Taxol] 7.5): 12 min
- NEB-NER Ave. (RBL-FMB cells [2]; [Taxol] 7.5): 202.1 min
- NEB-NER Med. (RBL-FMB cells [2]; [Taxol] 7.5): 195 min
- NEB-anaphase Ave. (RBL-FMB cells [2]; [Taxol] 7.5): 171.1 min
- NEB-anaphase Med. (RBL-FMB cells [2]; [Taxol] 7.5): 166 min
- Anaphase-NER Ave. (RBL-FMB cells [2]; [Taxol] 8): 12.1 min
- Anaphase-NER Med. (RBL-FMB cells [2]; [Taxol] 8): 12 min
- NEB-NER Ave. (RBL-FMB cells [2]; [Taxol] 8): 192.7 min
- NEB-NER Med. (RBL-FMB cells [2]; [Taxol] 8): 189 min
- NEB-anaphase Ave. (RBL-FMB cells [2]; [Taxol] 8): 180.3 min
- NEB-anaphase Med. (RBL-FMB cells [2]; [Taxol] 8): 178 min
- anaphase to NER phase (post-checkpoint) (RBL-FMB cells [2]; increasing TAXOL): smaller and ungraded effects
- timing between NEB and anaphase (pre-checkpoint mitosis phase) (RBL-FMB cells [2]; increasing TAXOL): significantly prolonged

Source: patent publication US7655434B2, “Live-cell biosensor polypeptides and methods of use” (The Board of Trustees of the Leland Stanford Junior …, priority 2004, dated 2010)
